Test results taken from the CheMixHub viscosity set.
Where “and” joins values, the source holds several entries; their conditions need not be identical. Equal values may be shown once.

Assay: xn = mol fraction of the nth substance listed

CCCC(=O)O + NC=O
viscosity [mPa·s], 101 kPa
Settings | x1 = 0.1043 | x1 = 0.2044 | x1 = 0.3013 | x1 = 0.4031 | x1 = 0.5027 | x1 = 0.5996 | x1 = 0.7011 | x1 = 0.799 | x1 = 0.857 | x1 = 0.951
298.15 K | 2.333 | 3.534 | 5.24 | 7.11 | 8.41 | 9.33 | 9.17 | 8.51 | 7.33 | 4.986
313.15 K | 1.734 | 2.563 | 3.461 | 4.456 | 5.37 | 5.8 | 5.8 | 5.54 | 4.779 | 3.252

CCN(C=O)CC + NC=O
viscosity [mPa·s]
Settings | 298.15 K | 308.15 K | 323.15 K
101 kPa, x1 = 0.1 | 3.55 | 2.91 | 2.27
101 kPa, x1 = 0.2 | 3.62 | 2.97 | 2.29
101 kPa, x1 = 0.3 | 3.51 | 2.86 | 2.15
101 kPa, x1 = 0.4 | 3.25 | 2.62 | 1.91
101 kPa, x1 = 0.5 | 2.93 | 2.34 | 1.64
101 kPa, x1 = 0.6 | 2.52 | 2.01 | 1.43
101 kPa, x1 = 0.7 | 2.24 | 1.71 | 1.22
101 kPa, x1 = 0.85 | 1.61 | 1.34 | 1.01
101.33 kPa, x2 = 0.07537 | 1.391 | – | 0.937
101.33 kPa, x2 = 0.1513 | 1.585 | – | 1.034
101.33 kPa, x2 = 0.2164 | 1.736 | – | 1.103
101.33 kPa, x2 = 0.2957 | 2.021 | – | 1.26
101.33 kPa, x2 = 0.3723 | 2.312 | – | 1.37
101.33 kPa, x2 = 0.4452 | 2.614 | – | 1.503
101.33 kPa, x2 = 0.4964 | 2.776 | – | 1.603
101.33 kPa, x2 = 0.5665 | 3.138 | – | 1.757
101.33 kPa, x2 = 0.6362 | 3.333 | – | 1.859
101.33 kPa, x2 = 0.7013 | 3.547 | – | 1.942
101.33 kPa, x2 = 0.7404 | 3.678 | – | 1.99
101.33 kPa, x2 = 0.785 | 3.722 | – | 2.046
101.33 kPa, x2 = 0.8471 | 3.663 | – | 2.045
101.33 kPa, x2 = 0.93 | 3.516 | – | 1.978

COCCO + NCCO
viscosity [mPa·s], 101.3 kPa
Settings | x2 = 0.122 | x2 = 0.348 | x2 = 0.916
298.15 K | 2.065 | 3.765 | –
308.15 K | – | – | 10.55

C#CC(C)(C)O + O
viscosity [mPa·s], 101.32 kPa
Settings | x1 = 0.1001 | x1 = 0.2003 | x1 = 0.3009 | x1 = 0.4001 | x1 = 0.5004 | x1 = 0.602 | x1 = 0.7044 | x1 = 0.8017 | x1 = 0.9005
308.15 K | 1.612 | 2.02 | 2.2 | 2.289 | 2.308 | 2.297 | 2.254 | 2.21 | 2.152
313.15 K | 1.403 | 1.78 | 1.92 | 1.973 | 1.986 | 1.968 | 1.928 | 1.898 | 1.838
318.15 K | 1.24 | 1.56 | 1.67 | 1.7 | 1.719 | 1.712 | 1.669 | 1.643 | 1.582
323.15 K | 1.105 | 1.369 | 1.45 | 1.483 | 1.498 | 1.486 | 1.449 | 1.424 | 1.376

C1CCNCC1 + O
viscosity [mPa·s], 101 kPa
Settings | x1 = 0.05 | x1 = 0.1 | x1 = 0.2 | x1 = 0.3 | x1 = 0.35 | x1 = 0.4 | x1 = 0.6 | x1 = 0.8
298.15 K | 1.9 | 3.06 | 4.76 | 5.4 | 5.42 | 5.13 | 3.38 | 2.05
323.15 K | 0.887 | 1.26 | 1.77 | 1.94 | 1.94 | 1.86 | 1.38 | 0.993

C1CNCCN1 + O
Settings | viscosity
293.15 K, 100 kPa, x1 = 0.02273 | 1.608 mPa·s
298.15 K, 101 kPa, x1 = 0.0292 | 1.877 mPa·s
303.15 K, 101 kPa, x1 = 0.00369 | 0.86 mPa·s
303.15 K, 101 kPa, x1 = 0.005 | 0.84 mPa·s
303.15 K, 101 kPa, x1 = 0.01 | 0.93 mPa·s
303.15 K, 101 kPa, x1 = 0.0113 | 0.97 mPa·s
303.15 K, 101 kPa, x1 = 0.02 | 1.13 mPa·s
303.15 K, 101 kPa, x1 = 0.02358 | 1.28 mPa·s
303.15 K, 101 kPa, x1 = 0.025 | 1.28 mPa·s
303.15 K, 101 kPa, x1 = 0.03 | 1.41 mPa·s
303.15 K, 101 kPa, x1 = 0.035 | 1.57 mPa·s
303.15 K, 101 kPa, x1 = 0.04 | 1.76 mPa·s
303.15 K, 101 kPa, x1 = 0.045 | 1.91 mPa·s
313.15 K, 100 kPa, x1 = 0.02273 | 0.9677 mPa·s and 0.988 mPa·s
313.15 K, 101 kPa, x1 = 0.005 | 0.67 mPa·s
313.15 K, 101 kPa, x1 = 0.01 | 0.74 mPa·s
313.15 K, 101 kPa, x1 = 0.0113 | 0.76 mPa·s
313.15 K, 101 kPa, x1 = 0.015 | 0.81 mPa·s
313.15 K, 101 kPa, x1 = 0.02 | 0.89 mPa·s
313.15 K, 101 kPa, x1 = 0.02358 | 1.02 mPa·s
313.15 K, 101 kPa, x1 = 0.025 | 0.99 mPa·s
313.15 K, 101 kPa, x1 = 0.0292 | 1.307 mPa·s
313.15 K, 101 kPa, x1 = 0.03 | 1.08 mPa·s
313.15 K, 101 kPa, x1 = 0.04 | 1.33 mPa·s
313.15 K, 101 kPa, x1 = 0.045 | 1.43 mPa·s
318.15 K, 101 kPa, x1 = 0.00369 | 0.61 mPa·s
318.15 K, 101 kPa, x1 = 0.0113 | 0.69 mPa·s
318.15 K, 101 kPa, x1 = 0.02358 | 0.92 mPa·s
323.15 K, 101 kPa, x1 = 0.005 | 0.51 mPa·s
323.15 K, 101 kPa, x1 = 0.01 | 0.59 mPa·s
323.15 K, 101 kPa, x1 = 0.0113 | 0.62 mPa·s
323.15 K, 101 kPa, x1 = 0.02 | 0.71 mPa·s
323.15 K, 101 kPa, x1 = 0.02358 | 0.81 mPa·s
323.15 K, 101 kPa, x1 = 0.025 | 0.8 mPa·s
323.15 K, 101 kPa, x1 = 0.03 | 0.86 mPa·s
323.15 K, 101 kPa, x1 = 0.035 | 0.95 mPa·s
323.15 K, 101 kPa, x1 = 0.04 | 1.04 mPa·s
323.15 K, 101 kPa, x1 = 0.045 | 1.11 mPa·s

CCC(=O)[O-].CC[N+]1(C)CCOCC1 + O
viscosity [mPa·s], 100 kPa
Settings | x1 = 0.0672 | x1 = 0.1305 | x1 = 0.2131 | x1 = 0.2851 | x1 = 0.4005 | x1 = 0.5397 | x1 = 0.6231 | x1 = 0.7436
298.15 K | 4.98 | 16.4 | 50.3 | 98.7 | 318 | 1237 | 2366 | –
303.15 K | 4.23 | 13.2 | 38.8 | 74.6 | 223 | 796 | 1660 | –
308.15 K | 3.64 | 11.2 | 30.6 | 57.2 | 160 | 530 | 1149 | –
313.15 K | 3.16 | 9.32 | 24.5 | 44.6 | 119 | 366 | 786 | 2582
318.15 K | 2.76 | 7.58 | 20 | 35.4 | 89.3 | 258 | 543 | 1792
323.15 K | 2.44 | 6.46 | 16.5 | 28.7 | 69.1 | 187 | 372 | 1137
